Measurements taken from US20250144067A1, “PERSONALIZED STARVATION THERAPY FOR CANCER” (Faeth Therapeutics, Inc., priority 2021, published 2025).
Structures can show the parent of a compound that is named as a salt. Where two headings read alike, the source gives them in different places.

How the values were obtained:
[1] = test system: NCI-H292 lung cancer cells; test: FDA drug screening, complete media vs cholesterol-free media without statin (TABLE 1); format: cell-based, human
[2] = test system: NCI-H292 lung cancer cells; test: FDA drug screening, complete media vs cholesterol-free media with simvastatin (TABLE 2); format: cell-based, human
[3] = NCI-H292 cells, cholesterol-free media without statin, FDA drug library screen
[4] = NCI-H292 cells, complete media, FDA drug library screen
[5] = complete vs cholesterol-free media, >0 enhanced anti-cancer activity, about 0 neutral, <0 antagonist
[6] = NCI-H292 cells, FDA drug library screen, cholesterol-free media with simvastatin 0.04 μM
[7] = NCI-H292 cells, FDA drug library screen, complete media
[8] = complete media vs cholesterol-free media + simvastatin (0.04 μM), >0 enhanced anti-cancer activity, about 0 neutral, <0 antagonist
[9] = NCI-H292 cells, cholesterol-free media without statin
[10] = complete vs cholesterol-free media, greater than 0 enhanced anti-cancer activity, about 0 neutral, below 0 antagonists
[11] = complete media minus cholesterol-free media + simvastatin, >0 enhanced anti-cancer activity, about 0 neutral, <0 antagonist
[12] = Complete minus Cholesterol-free, greater than 0 enhanced anti-cancer activity, about 0 neutral, below 0 antagonist
[13] = NCI-H292 cells, FDA drug library screen, cholesterol-free media without statin
[14] = NCI-H292 cells, cholesterol-free media with simvastatin 0.04 μM, cell growth value in FDA drug screen
[15] = NCI-H292 cells, complete media, cell growth value in FDA drug screen
[16] = Complete minus Cholesterol-free, >0 enhanced anti-cancer activity, about 0 neutral, <0 antagonist
[17] = Complete minus Cholesterol-free, […]
[18] = NCI-H292 cells, cholesterol-free media with simvastatin 0.04 μM, FDA drug library screen (TABLE 2)
[19] = NCI-H292 cells, complete media, FDA drug library screen (TABLE 2)
[20] = complete vs cholesterol-free media, […]
[21] = NCI-H292 cells, drug in cholesterol-free media with simvastatin 0.04 μM
[22] = NCI-H292 cells, drug in complete media
[23] = complete media vs cholesterol-free media + simvastatin (0.04 μM), […]
[24] = NCI-H292 cells, FDA library drug in cholesterol-free media with simvastatin 0.04 μM
[25] = NCI-H292 cells, FDA library drug in complete media
[26] = Complete minus Cholesterol-free, greater than 0 enhanced anti-cancer activity, about 0 neutral, below 0 antagonists
[27] = NCI-H292 cells in cholesterol-free media without statin
[28] = NCI-H292 cells in complete media
[29] = complete media minus cholesterol-free media + simvastatin (0.04 μM), >0 enhanced anti-cancer activity, about 0 neutral, <0 antagonist

C=CC(=O)Nc1cccc(Oc2nc(Nc3ccc(N4CCN(C)CC4)cc3)nc3ccsc23)c1 [Olmutinib]
Cholesterol-free [1, 3]: 0.5571
Complete [1, 4]: 0.798
Difference [1, 5]: 0.24
Cholesterol-free media + simvastatin (0.04 μM) [2, 6]: 0.5571
Complete Media [2, 7]: 0.4482
Difference [2, 8]: −0.11

O=C(O[C@@H]1C[C@@H]2C[C@H]3C[C@H](C1)N2CC3=O)c1c[nH]c2ccccc12 [Dolasetron (Mesylate hydrate)]
Cholesterol-free [1, 9]: 1.287
Complete ([1]; NCI-H292 cells, complete media): 0.8444
Difference [1, 10]: −0.44
Cholesterol-free media + simvastatin (0.04 μM) [2, 6]: 1.31
Complete Media [2, 7]: 1.817
Difference [2, 11]: 0.51

COC(=O)C1=C(C)NC(C)=C(C(=O)OC(C)(C)CN(C)CCC(c2ccccc2)c2ccccc2)C1c1cccc([N+](=O)[O-])c1 (stereo not shown) [Lercanidipine (hydrochloride)]
Difference [1, 12]: −0.18
Cholesterol-free [1, 13]: 0.8895
Complete [1, 7]: 0.7061
Cholesterol-free media + simvastatin (0.04 μM) [2, 14]: 0.8086
Complete Media [2, 15]: 0.8565
Difference [2, 11]: 0.05

Nc1ccn([C@H]2CC[C@@H](CO)O2)c(=O)n1 [Zalcitabine]
Difference [1, 16]: −0.22
Cholesterol-free [1, 9]: 1.156
Complete ([1]; NCI-H292 cells, complete media): 0.9405
Cholesterol-free media + simvastatin (0.04 μM) [2, 14]: 1.825
Complete Media [2, 15]: 1.89
Difference [2, 11]: 0.06

CC(O)C(=O)O.CCOc1ccc2nc3cc(N)ccc3c(N)c2c1.O [Ethacridine (lactate monohydrate)]
Difference [1, 17]: −0.05
Cholesterol-free [1, 3]: 0.2006
Complete [1, 4]: 0.1519
Cholesterol-free media + simvastatin (0.04 μM) [2, 18]: 0.1737
Complete Media [2, 19]: 0.1706
Difference ([2]; complete media minus cholesterol-free media + simvastatin (0.04 μM), […]): 0.00

CCn1cc(C(=O)O)c(=O)c2ccc(C)nc21 [Nalidixic acid]
Cholesterol-free [1, 9]: 1.332
Complete ([1]; NCI-H292 cells, complete media): 0.9692
Difference [1, 20]: −0.36
Cholesterol-free media + simvastatin (0.04 μM) [2, 21]: 1.203
Complete Media [2, 22]: 0.9667
Difference [2, 23]: −0.24

Chloroquine (phosphate)
Cholesterol-free [1]: 1.557
Complete [1]: 0.9171
Difference [1]: −0.64
Cholesterol-free media + simvastatin (0.04 μM) [2]: 1.286
Complete Media [2]: 0.98
Difference [2]: −0.31

COc1cc(C(=O)NCc2ccc(OCCN(C)C)cc2)cc(OC)c1OC [Trimethobenzamide hydrochloride]
Cholesterol-free [1, 3]: 0.8254
Complete [1, 4]: 0.9013
Difference [1, 5]: 0.08
Cholesterol-free media + simvastatin (0.04 μM) [2, 24]: 1.241
Complete Media [2, 25]: 0.874
Difference [2, 8]: −0.37

CC(C)Cc1ccc(C(C)C(=O)O)cc1 (stereo not shown) [Ibuprofen]
Cholesterol-free [1, 9]: 1.419
Complete ([1]; NCI-H292 cells, complete media): 1.058
Difference [1, 10]: −0.36
Cholesterol-free media + simvastatin (0.04 μM) [2, 24]: 1.512
Difference [2, 8]: −0.36

Doxylamine (succinate)
Difference [1, 16]: −0.30
Cholesterol-free [1, 9]: 1.101
Complete ([1]; NCI-H292 cells, complete media): 0.8034
Cholesterol-free media + simvastatin (0.04 μM) [2, 14]: 1.024
Complete Media [2, 15]: 1.092
Difference [2, 11]: 0.07

CC[C@H](C)C(=O)O[C@H]1C[C@@H](C)C=C2C=C[C@H](C)[C@H](CC[C@@H]3C[C@@H](O)CC(=O)O3)[C@H]21 [Lovastatin]
Difference [1, 12]: −0.11
Cholesterol-free [1, 13]: 0.7089
Complete [1, 7]: 0.603
Cholesterol-free media + simvastatin (0.04 μM) [2, 6]: 0.5184
Complete Media [2, 7]: 0.7992
Difference [2, 11]: 0.28

CC1=C(C(=O)O)N2C(=O)[C@@H](NC(=O)[C@H](N)c3ccc(O)cc3)[C@H]2SC1 [Cefadroxil]
Cholesterol-free [1, 3]: 1.424
Complete [1, 4]: 1.685
Difference [1, 5]: 0.26
Cholesterol-free media + simvastatin (0.04 μM) [2, 6]: 1.041
Complete Media [2, 7]: 1.588
Difference [2, 11]: 0.55

C=C1c2cccc(O)c2C(=O)C2=C(O)[C@]3(O)C(=O)C(C(N)=O)=C(O)[C@@H](N(C)C)[C@@H]3[C@@H](O)[C@H]12 [Methacycline (hydrochloride)]
Difference [1, 26]: −0.57
Cholesterol-free [1, 27]: 1.479
Complete [1, 28]: 0.9047
Cholesterol-free media + simvastatin (0.04 μM) [2, 24]: 1.315
Complete Media [2, 25]: 0.995
Difference [2, 8]: −0.32

OCc1ccccc1 [Benzyl alcohol]
Difference [1, 12]: −0.14
Cholesterol-free [1, 13]: 1.033
Complete [1, 7]: 0.8945
Cholesterol-free media + simvastatin (0.04 μM) [2, 6]: 0.8765
Complete Media [2, 7]: 1.062
Difference [2, 11]: 0.19

CC(C)(Oc1ccc(CCNC(=O)c2ccc(Cl)cc2)cc1)C(=O)O [Bezafibrate]
Difference [1, 26]: −0.60
Cholesterol-free [1, 27]: 1.652
Complete [1, 28]: 1.053
Cholesterol-free media + simvastatin (0.04 μM) [2, 18]: 1.03
Complete Media [2, 19]: 1.024
Difference [2, 29]: −0.01

O=c1c(-c2ccc(O)cc2)coc2cc(O)ccc12 [Daidzein]
Difference [1, 16]: −0.02
Cholesterol-free [1, 3]: 1.1
Complete [1, 4]: 1.082
Cholesterol-free media + simvastatin (0.04 μM) [2, 6]: 1.306
Complete Media [2, 7]: 1.614
Difference [2, 11]: 0.31

CC(C)N(CC[C@H](c1ccccc1)c1cc(CO)ccc1O)C(C)C [Desfesoterodine]
Cholesterol-free [1, 3]: 0.7501
Complete [1, 4]: 1.3
Difference [1, 20]: 0.55
Cholesterol-free media + simvastatin (0.04 μM) [2, 21]: 1.01
Complete Media [2, 22]: 0.8395
Difference [2, 23]: −0.17

CC1=C(C(=O)OC(C)C)C(c2cccc([N+](=O)[O-])c2)C(C(=O)OC2CN(C(c3ccccc3)c3ccccc3)C2)=C(N)N1 (stereo not shown) [Azelnidipine]
Difference [1, 12]: −0.15
Cholesterol-free [1, 13]: 0.7076
Complete [1, 7]: 0.5567
Cholesterol-free media + simvastatin (0.04 μM) [2, 6]: 0.7982
Complete Media [2, 7]: 1.013
Difference [2, 11]: 0.21

CC(C)[C@H](N)C(=O)O [L-Valine]
Difference [1, 17]: −0.26
Cholesterol-free [1, 9]: 1.382
Complete ([1]; NCI-H292 cells, complete media): 1.127
Cholesterol-free media + simvastatin (0.04 μM) ([2]; NCI-H292 cells, cholesterol-free media with simvastatin 0.04 μM, […]): 0.8399
Complete Media ([2]; NCI-H292 cells, complete media, […]): 0.8676
Difference ([2]; complete media minus cholesterol-free media + simvastatin, […]): 0.03

CC1=C(CC(=O)O)c2cc(F)ccc2/C1=C\c1ccc([S+](C)[O-])cc1 (stereo not shown) [Sulindac]
Difference [1, 26]: −0.48
Cholesterol-free [1, 27]: 1.336
Complete [1, 28]: 0.8519
Cholesterol-free media + simvastatin (0.04 μM) [2, 18]: 1.193
Difference [2, 29]: −0.02

OCC(S)CS (stereo not shown) [Dimercaprol]
Difference [1, 12]: −0.18
Cholesterol-free [1, 13]: 0.9919
Complete [1, 7]: 0.8115
Cholesterol-free media + simvastatin (0.04 μM) [2, 6]: 0.8801
Complete Media [2, 7]: 1.094
Difference [2, 11]: 0.21

Cc1ccc(C(C)C)cc2c(C)ccc1-2 [Guaiazulene]
Difference [1, 16]: −0.21
Cholesterol-free [1, 9]: 1.231
Complete ([1]; NCI-H292 cells, complete media): 1.025
Cholesterol-free media + simvastatin (0.04 μM) [2, 21]: 1.916
Complete Media [2, 22]: 1.674
Difference [2, 8]: −0.24

Amlodipine (maleate)
Cholesterol-free [1]: 1.127
Complete [1]: 0.9069
Difference [1]: −0.22
Cholesterol-free media + simvastatin (0.04 μM) [2]: 1.087
Complete Media [2]: 0.7885
Difference [2]: −0.30
